# Reference: US20140378541A1, “Synthetic Epigallocatechin Gallate (EGCG) Analogs” (WAYNE STATE UNIVERSITY, priority 2011, published 2014)
# Molecular target: T1, purified rabbit 20S proteasome (Oryctolagus cuniculus, UniProt G1T4Q9)
# T1 sequence (G1T4Q9 60-263): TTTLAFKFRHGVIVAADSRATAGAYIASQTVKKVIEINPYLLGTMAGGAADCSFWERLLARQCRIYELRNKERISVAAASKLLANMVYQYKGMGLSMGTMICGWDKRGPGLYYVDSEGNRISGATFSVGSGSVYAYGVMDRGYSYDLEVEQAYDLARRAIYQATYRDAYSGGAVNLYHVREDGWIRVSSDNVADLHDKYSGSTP
# Assay: Inhibition of chymotrypsin-like activity of purified 20S proteasome
# Type: biochemical
# Conditions: purified 20S proteasome, concentration not stated
# Description: Purified 20S proteasome was incubated with compound 5, 7, 16, or 21 (A) or MDA-MB-231 cell extract (5.7 μg) was incubated with compound 6, 8, 17, or 22 (B) at indicated concentrations for 2 hours, followed by measuring the proteasomal chymotrypsin-like activity. EGCG was used as a comparative standard.
# Purified rabbit 20S proteasome and fluorogenic substrate Suc-LLVY-AMC for the proteasomal chymotrypsin like (CT-like) activity were obtained from Calbiochem Inc. (San Diego, Calif.). Fetal bovine serum (FBS) was from Tissue Culture Biologicals (Tulare, Calif.). Penicillin and streptomycin were purchased from Invitrogen Co. (Carlsbad, Calif.). RPMI 1640 medium was purchased from Invitrogen Co. (Carlsbad, Calif.). MTT (3-4,5-dimethylthiazol-2-yl-2.5-diphenyl-tetrazolium bromide) was purchased from Sigma-Aldrich.
# A purified rabbit 20S proteasome (35 ng) was incubated with 20 μM of substrate Suc-LLVY-AMC in 100 μl assay buffer (20 mM Tris-HCl, pH 7.5), in the presence of EGCG or EGCG analogs at different concentrations or the solvent for 2 h at 37° C., followed by measurement of hydrolysis of the fluorogenic substrates using a Wallac Victor3™ multi-label counter with 355-nm excitation and 460-nm emission wavelengths.
compound,measurement,value
"O=C(O[C@@H]1Cc2c(O)cc(O)cc2O[C@@H]1c1cc(O)c(O)c(O)c1)c1cc(O)c(O)c(O)c1 [Compound 1, (−)-Epigallocatechin gallate, reference compound]",proteasomal inhibition (in words),potently inhibited
